Source: patent US20090312243A1, “TREATMENT OF INFLAMMATORY BOWEL DISEASE (IBD) WITH ANTI-ANGIOGENIC COMPOUNDS” (priority 2005, published 2009)
“Also recorded” adds a separate entry of the source.

Assays:
[1] = tested on: C57BL/10 IL-10-deficient mice; assay: IL-10-deficient mouse colitis model, disease activity index (DAI); assay type: in vivo; settings: for effect on established colitis (disease activity index): n=12 per group
Method: The DAI was calculated by scoring 1 point for the appearance of each of the following: ruffled fur, occult fecal blood as determined on a Hemoccult Sensa® card (Smith Kline Diagnostics, San Jose, Calif.), rectal prolapse <1 mm, and soft stool. The mice were scored an additional point for diarrhea or severe rectal prolapse >1 mm. The mean with standard error bars of the DAI are plotted for pretreatment and then at the end of each week of treatment (n=12 per group).
The preferred, and widely used, model for testing is the IL-10-deficient (KO) mouse (on a C57BL/10 strain background). As described in the Examples, colonies of C57BL/10 IL-10 KO mice are bred and used. These mice consistently develop colitis at 10-12 weeks of age when transported from the ultra-barrier facility to conventional housing. These mice are used to test the effect of a candidate anti-angiogenic agent on pathogenesis and treatment of established disease.
Colonies of C57BL/10 IL-10-deficient mice were routinely bred at the Case Western Reserve University Animal Research Center for studies of early and late colitis. These mice consistently develop colitis at 10-12 weeks of age when transported from the ultra-barrier facility to conventional housing. These mice were used to test the effect of ATN 161 (Ac-PHSCN—NH2) on both the development and treatment of established disease.
ATN-161 had no effect on the development of colitis in this model when treatment was initiated at the time that the mice were moved to conventional housing. […] A scrambled peptide version of ATN-161 (ATN-163; Ac-HSPNC—NH2) was used as a control and had no effect on established colitis in this model. ATN-163 and vehicle controls were indistinguishable in these studies (data not shown).

[2] = tested on: C57BL/10 IL-10-deficient mice; assay: Histologic grading for colitis of colon at Week 6; assay type: in vivo, mouse; settings: end of Week 6; ATN-161 versus ATN-163 treated group
Method: FIG. 2 is a graph summarizing the histologic grading for colitis at Week 6. Grading of intestinal inflammation was determined in a blinded fashion by three readers: no inflammation (0); modest numbers of infiltrating cells in the lamina propria (1); infiltration of mononuclear cells leading to separation of crypts and mild mucosal hyperplasia (2); massive infiltration with inflammatory cells accompanied by disrupted mucosal architecture, loss of goblet cells, and marked mucosal hyperplasia (3); all of the above plus crypt abscesses or ulceration (4).
Animals were euthanized at the end of Week 6 and the colon removed for histologic analysis.

IL-6 [3] = assay: IL-6 in supernatants of cultured colon fragments from treated mice (ELISA); assay type: in vivo, mouse; settings: 48 hours culture; versus ATN-163 treated controls
Method: (§1) FIGS. 3A and 3B are graphs showing that colon fragments from ATN-161 treated mice expressed lower levels of IL-12 and IL-6. Fragments of colon from mice treated with ATN-161 or ATN-163 were cultured in RPMI media +2% fetal bovine serum and 2.5% PSF (antibiotic-antimycotic). After 48 hours, supernatants were harvested and kept frozen at −80 C. FIG. 3A: IL-12(p40) was analyzed using an ELISA in which plates had been coated with the monoclonal antibody C15.6. FIG. 3B: IL-6 was analyzed using a commercially available ELISA kit specific for mouse IL-6 (R&D Systems, Minneapolis, Minn.).
(§2) Biopsies were also cultured in vitro and the supernatants analyzed for IL-6 and IL-12 expression as previously described (Spencer D M et al., 2002, Gastroenterology 122:94-105). IL-6 and IL-12 are inflammatory cytokines that have been correlated with the pathogenesis of colitis (Mahida Y R, 2000, Inflamm Bowel Dis 6:21-33).

IL-12(p40) = assay: IL-12 in supernatants of cultured colon fragments from treated mice (ELISA); assay type: in vivo, mouse; settings: 48 hours culture; versus ATN-163 treated controls
Method: as §1, §2

IL-6 [4] = assay: IL-6 production in vitro by LPMC extracts and splenocytes; assay type: cell-based; settings: lamina propria mononuclear cell (LPMC) extracts and splenocytes
Method: (§3) The effect of ATN-161 on IL-6 and IL-12 expression was also evaluated in vitro using lamina propria mononuclear cell (LPMC) extracts and splenocytes.

IL-12 = IL-12 production in vitro by LPMC extracts and splenocytes; assay type: cell-based; settings: lamina propria mononuclear cell (LPMC) extracts and splenocytes
Method: as §3

[5] = tested on: C57BL/10 IL-10-deficient mice; assay: Microvessel density in colon sections by anti-CD31 immunostaining; assay type: in vivo, mouse; settings: zinc fixed colon sections
Method: FIG. 4 is a graph showing an analysis of microvessel density using anti-CD31 immunostaining. Immunostaining was performed using the mouse CD31 specific mAb MEC 13.3 (Becton-Dickinson, San Diego, Calif.). Morphometric analysis was carried out using an international consensus for the quantification of angiogenesis (Vermeulen P B et al., Eur J Cancer 32A:2474-84; Eur J Cancer 38:1564-15). In particular stained colonic sections were scanned at low power (40×) to detect the most vascularized area, after which at least 5 microphotographs at 200× magnification were taken in the mucosa and in the submucosa. The number of vessels/field (mean vascular density) was performed using Image Pro Plus Software (Media Cybernetics, Silver Spring, Md.).
Microvessel density as a measure of angiogenesis was determined in zinc fixed colon sections.

[6] = tested on: human colon cancer cells (HT29); settings: HT29 do not express integrin α5β1; cited from earlier work
cell adhesion = settings: cited from earlier work
tumor angiogenesis = settings: cited from earlier work

Substance | treatment time after which the reduction of colitis was observed ([1]; mice with established disease) | effect on established colitis (disease activity index) ([1]; mice with established disease) | effect on the development of colitis ([1]; treatment initiated at the time the mice were moved to conventional housing) | histologic score [2] | IL-6 level in colon fragment organ culture (IL-6 [3]) | IL-12 level in colon fragment organ culture (IL-12(p40)) | effect on IL-6 production (IL-6 [4]) | effect on IL-12 production (IL-12) | reduction of microvessels versus ATN-163 treated controls [5] | in vivo growth of xenografted HT29 cells [6] | effect on cell adhesion (cell adhesion) | effect on efficacy of 5-fluorouracil (tumor angiogenesis; combination with 5-fluorouracil) | effect on tumor angiogenesis (tumor angiogenesis; in vivo)
Ac-PHSCN—NH2 (Ac-PHSCN-NH2) [ATN-161] | approximately four | consistently reduced colitis; also recorded: reduces established colitis | no effect | significantly lower | significantly lower levels | significantly lower levels | no effect | no effect | approximately 40% | significantly reduced | does not affect cell adhesion | enhance the efficacy | inhibited tumor angiogenesis
Ac-HSPNC—NH2 (Ac-HSPNC-NH2) [ATN-163, reference compound] |  | no effect |  |  |  |  |  |  |  |  |  |  | 
